Earlier results in patent publication US20080233144A1, “Use of the Mushroom Agaricus Blazei Murill for the Production of Medicaments Suitable for Treating Infections and Allergies” (priority 2004, published 2008).

Test system: Streptococcus pneumoniae serotype 6B
Conditions: previous experiments

β-glucan
effect in the pneumococcus infection model when given via gavage: did not have any effect
